Reference: ChEMBL document CHEMBL1132901, “Synthesis and structure-activity relationships of quaternary ammonium cephalosporins with 3-pyrazolylpyridinium derivatives” (2000)
Values after ≈ are worked out from the molar mass of the structure shown.

Legend:
Staphylococcus aureus [1] = assay: In vitro antimicrobial activity against Staphylococcus aureus 285; type: functional
Streptococcus pyogenes [2] = assay: In vitro antimicrobial activity against Streptococcus pyogenes 77A; type: functional
Pseudomonas aeruginosa [3] = assay: In vitro antimicrobial activity against Pseudomonas aeruginosa 1771 M; type: functional
Enterobacter cloacae [4] = assay: In vitro antimicrobial activity against Enterobacter cloacae P99; type: functional
Pseudomonas aeruginosa [5] = assay: In vitro antimicrobial activity against Pseudomonas aeruginosa 1771; type: functional
Klebsiella aerogenes = assay: In vitro antimicrobial activity against Klebsiella aerogenes 1522 E; type: functional
Klebsiella oxytoca = assay: In vitro antimicrobial activity against Klebsiella oxytoca 1082; type: functional
Staphylococcus aureus [6] = assay: In vitro antimicrobial activity against Methicillin resistant Staphylococcus aureus (MRSA); type: functional
Pseudomonas aeruginosa [7] = assay: In vitro antimicrobial activity against Pseudomonas aeruginosa 9027; type: functional
Streptococcus pyogenes [8] = assay: Compound has been evaluated for in vitro antimicrobial activity against Streptococcus pyogenes A 308; type: functional
Escherichia coli [9] = assay: In vitro antimicrobial activity against Escherichia coli DC 0; type: functional
Escherichia coli [10] = assay: In vitro antimicrobial activity against Escherichia coli 1507E; type: functional
Enterobacter cloacae [11] = assay: In vitro antimicrobial activity against Enterobacter 1321 E; type: functional
Escherichia coli [12] = assay: In vitro antimicrobial activity against Escherichia coli 055; type: functional
Enterococcus faecium = assay: In vitro antimicrobial activity against Streptococcus faecium MD 8b; type: functional
Escherichia coli [13] = assay: In vitro antimicrobial activity against Escherichia coli TEM; type: functional
Salmonella typhimurium = assay: In vitro antimicrobial activity against Salmonella Typhimurium; type: functional, Salmonella enterica subsp. enterica serovar Typhimurium; conditions: Salmonella enterica
Pseudomonas aeruginosa [14] = assay: In vitro antimicrobial activity against Pseudomonas aeruginosa 1592 E; type: functional
Escherichia coli [15] = assay: In vitro antimicrobial activity against Escherichia coli DC 2; type: functional
Staphylococcus aureus [16] = assay: In vitro antimicrobial activity against Staphylococcus aureus 503; type: functional
Streptococcus pyogenes [17] = assay: In vitro antimicrobial activity against Streptococcus pyogenes SG 511; type: functional
Streptococcus pyogenes [18] = assay: In vitro antimicrobial activity against Streptococcus pyogenes A 308; type: functional

Row | Structure (SMILES) | MIC (Streptococcus pyogenes [18]) [µg/mL] | MIC (Staphylococcus aureus [1]) [µg/mL] | MIC (Streptococcus pyogenes [2]) [µg/mL] | MIC (Pseudomonas aeruginosa [3]) [µg/mL] | MIC (Enterobacter cloacae [4]) [µg/mL] | MIC (Pseudomonas aeruginosa [5]) [µg/mL] | MIC (Klebsiella aerogenes) [µg/mL] | MIC (Klebsiella oxytoca) [µg/mL] | MIC (Pseudomonas aeruginosa [7]) [µg/mL] | MIC (Escherichia coli [9]) [µg/mL] | MIC (Escherichia coli [10]) [µg/mL] | MIC (Enterobacter cloacae [11]) [µg/mL] | MIC (Escherichia coli [12]) [µg/mL] | MIC (Enterococcus faecium) [µg/mL] | MIC (Escherichia coli [13]) [µg/mL] | MIC (Salmonella typhimurium) [µg/mL] | MIC (Pseudomonas aeruginosa [14]) [µg/mL] | MIC (Escherichia coli [15]) [µg/mL] | MIC (Staphylococcus aureus [16]) [µg/mL] | MIC (Streptococcus pyogenes [17]) [µg/mL] | further results
1 | CO/N=C(/C(=O)NC1C(=O)N2C(C(=O)[O-])=C(C[n+]3cccc4c3CCC4)CSC12)c1csc(N)n1 (stereo not drawn) | – | 0.781 (≈ 1.52 µM) | 0.007 (≈ 0.0136 µM) | 0.195 (≈ 0.379 µM) | 3.12 (≈ 6.07 µM) | 0.781 (≈ 1.52 µM) | 0.025 (≈ 0.0486 µM) | 1.56 (≈ 3.04 µM) | 3.12 (≈ 6.07 µM) | 0.013 (≈ 0.0253 µM) | 0.025 (≈ 0.0486 µM) | 0.013 (≈ 0.0253 µM) | 0.025 (≈ 0.0486 µM) | 1.56 (≈ 3.04 µM) | 0.049 (≈ 0.0952 µM) | 0.025 (≈ 0.0486 µM) | 1.56 (≈ 3.04 µM) | 0.013 (≈ 0.0253 µM) | 0.098 (≈ 0.19 µM) | 0.391 (≈ 0.76 µM) | MIC (Staphylococcus aureus [6]): 25 µg/mL (≈ 48.6 µM); MIC (Streptococcus pyogenes [8]): 0.007 µg/mL (≈ 0.0136 µM)
2 | CO/N=C(/C(=O)N[C@@H]1C(=O)N2C(C(=O)[O-])=C(C[n+]3cccc(-c4cc(CO)nn4CCO)c3)CS[C@H]12)c1csc(N)n1 | 0.049 (≈ 0.0797 µM) | 6.25 (≈ 10.2 µM) | 0.049 (≈ 0.0797 µM) | 0.781 (≈ 1.27 µM) | > 50 | 6.25 (≈ 10.2 µM) | 0.195 (≈ 0.317 µM) | 12.5 (≈ 20.3 µM) | 25 (≈ 40.7 µM) | 0.195 (≈ 0.317 µM) | 0.391 (≈ 0.636 µM) | 0.098 (≈ 0.159 µM) | 0.098 (≈ 0.159 µM) | 12.5 (≈ 20.3 µM) | 0.781 (≈ 1.27 µM) | 0.391 (≈ 0.636 µM) | 12.5 (≈ 20.3 µM) | 0.098 (≈ 0.159 µM) | 1.56 (≈ 2.54 µM) | 6.25 (≈ 10.2 µM) | MIC (Staphylococcus aureus [6]): 25 µg/mL (≈ 40.7 µM)
3 | CO/N=C(/C(=O)N[C@@H]1C(=O)N2C(C(=O)[O-])=C(C[n+]3cccc(-c4cc(C)[nH]n4)c3)CS[C@H]12)c1csc(N)n1 | 0.007 (≈ 0.0126 µM) | 0.781 (≈ 1.41 µM) | 0.007 (≈ 0.0126 µM) | 0.781 (≈ 1.41 µM) | 50 (≈ 90.2 µM) | 1.56 (≈ 2.82 µM) | 0.049 (≈ 0.0883 µM) | 1.56 (≈ 2.82 µM) | 6.25 (≈ 11.3 µM) | 0.025 (≈ 0.0451 µM) | 0.098 (≈ 0.177 µM) | 0.013 (≈ 0.0234 µM) | 0.025 (≈ 0.0451 µM) | 3.12 (≈ 5.63 µM) | 0.098 (≈ 0.177 µM) | 0.098 (≈ 0.177 µM) | 3.12 (≈ 5.63 µM) | 0.013 (≈ 0.0234 µM) | 0.195 (≈ 0.352 µM) | 0.781 (≈ 1.41 µM) | MIC (Staphylococcus aureus [6]): 25 µg/mL (≈ 45.1 µM)

Now from value to molecule, other results behind:

Row | MIC (Streptococcus pyogenes [18]) [µg/mL] | Structure (SMILES) | MIC (Staphylococcus aureus [1]) [µg/mL] | MIC (Streptococcus pyogenes [2]) [µg/mL] | MIC (Pseudomonas aeruginosa [3]) [µg/mL] | MIC (Enterobacter cloacae [4]) [µg/mL] | MIC (Pseudomonas aeruginosa [5]) [µg/mL] | MIC (Klebsiella aerogenes) [µg/mL] | MIC (Klebsiella oxytoca) [µg/mL] | MIC (Pseudomonas aeruginosa [7]) [µg/mL] | MIC (Escherichia coli [9]) [µg/mL] | MIC (Escherichia coli [10]) [µg/mL] | MIC (Enterobacter cloacae [11]) [µg/mL] | MIC (Escherichia coli [12]) [µg/mL] | MIC (Enterococcus faecium) [µg/mL] | MIC (Escherichia coli [13]) [µg/mL] | MIC (Salmonella typhimurium) [µg/mL] | MIC (Pseudomonas aeruginosa [14]) [µg/mL] | MIC (Escherichia coli [15]) [µg/mL] | MIC (Staphylococcus aureus [16]) [µg/mL] | MIC (Streptococcus pyogenes [17]) [µg/mL] | further results
4 | 0.025 (≈ 0.0438 µM) | CO/N=C(/C(=O)N[C@@H]1C(=O)N2C(C(=O)[O-])=C(C[n+]3cccc(-c4cc(CO)[nH]n4)c3)CS[C@H]12)c1csc(N)n1 | 1.56 (≈ 2.74 µM) | 0.013 (≈ 0.0228 µM) | 0.391 (≈ 0.685 µM) | > 12.5 | 1.56 (≈ 2.74 µM) | 0.049 (≈ 0.0859 µM) | 3.12 (≈ 5.48 µM) | 6.25 (≈ 11 µM) | 0.049 (≈ 0.0859 µM) | 0.098 (≈ 0.172 µM) | 0.049 (≈ 0.0859 µM) | 0.049 (≈ 0.0859 µM) | 3.12 (≈ 5.48 µM) | 0.195 (≈ 0.342 µM) | 0.098 (≈ 0.172 µM) | 3.12 (≈ 5.48 µM) | 0.025 (≈ 0.0438 µM) | 0.391 (≈ 0.685 µM) | 1.56 (≈ 2.74 µM) | –
5 | 0.049 (≈ 0.0906 µM) | CO/N=C(/C(=O)N[C@@H]1C(=O)N2C(C(=O)[O-])=C(C[n+]3cccc(-c4cc[nH]n4)c3)CS[C@H]12)c1csc(N)n1 | 3.12 (≈ 5.78 µM) | 0.025 (≈ 0.0462 µM) | 3.12 (≈ 5.78 µM) | > 25 | 6.25 (≈ 11.6 µM) | 0.098 (≈ 0.181 µM) | 6.25 (≈ 11.6 µM) | 25 (≈ 46.2 µM) | 0.098 (≈ 0.181 µM) | 0.195 (≈ 0.361 µM) | 0.098 (≈ 0.181 µM) | 0.049 (≈ 0.0906 µM) | 6.25 (≈ 11.6 µM) | 0.195 (≈ 0.361 µM) | 0.195 (≈ 0.361 µM) | 12.5 (≈ 23.1 µM) | 0.049 (≈ 0.0906 µM) | 0.781 (≈ 1.44 µM) | 3.12 (≈ 5.78 µM) | –
6 | 0.049 (≈ 0.0838 µM) | CO/N=C(/C(=O)N[C@@H]1C(=O)N2C(C(=O)[O-])=C(C[n+]3cccc(-c4cc(CO)nn4C)c3)CS[C@H]12)c1csc(N)n1 | 3.12 (≈ 5.35 µM) | 0.025 (≈ 0.0428 µM) | 0.391 (≈ 0.669 µM) | > 25 | 3.12 (≈ 5.35 µM) | 0.098 (≈ 0.168 µM) | 6.25 (≈ 10.7 µM) | 25 (≈ 42.8 µM) | 0.049 (≈ 0.0838 µM) | 0.098 (≈ 0.168 µM) | 0.049 (≈ 0.0838 µM) | 0.049 (≈ 0.0838 µM) | 6.25 (≈ 10.7 µM) | 0.195 (≈ 0.334 µM) | 0.195 (≈ 0.334 µM) | 12.5 (≈ 21.4 µM) | 0.049 (≈ 0.0838 µM) | 0.781 (≈ 1.34 µM) | 3.12 (≈ 5.35 µM) | –
